{"source": "patent US20250122253A1", "about": "“REGULATING MICROTUBULE DYNAMICS AS A THERAPEUTIC TARGET FOR NERVE REPAIR” (City University of Hong Kong, priority 2023, published 2025)", "type_in_all_cases": "in vivo, mice", "key": {"[1]": {"tested_on": "gait movement", "test": "Sciatic functional index (SFI) walking track analysis", "conditions": "15 days post-injury", "description": "(§1) Adult male Fmn2^−/− mice (8-12 weeks old) and their age-matched WT littermates, or adult male C57BL/6 mice (for whole-body X-ray, AAV2/9-Fmn2-shRNA and metaxalone experiments) were trained and habituated one week before the sciatic nerve crush injury. After three independent training sessions (30 minutes per session with two days break), baseline values were taken, and sciatic nerve crush injury were performed one day after the baseline recordings. Function recovery was monitored for 30 days. On day 3 after the sciatic nerve crush, we first perform pinprick assay and followed by motor function assays every other day in a sequential manner (toe spreading, grip strength, and sciatic functional index) with 30 mins apart from each test. Animal behavioural tests were done blinded to the surgery and genotypes.\nThe walking track analysis was performed by training the mice to walk down a narrow corridor covered with white paper strip (10×60 cm) and the hindlimbs of the mice were pained with red water colour. […] The SFI values were calculated from footprints as follows: • […](experimental print length−naïve print length)/naïve print length+109.5×(experimental toe spread−naïve toe spread)/naïve toe spread+13.3×(experimental intermediary toe spread−naïve intermediary toe spread)/naïve intermediary toe spread−8.8. […]"}, "[2]": {"tested_on": "gastrocnemius and interosseous muscles", "test": "Electromyography (EMG) recording of CMAP amplitude", "description": "Electromyography (EMG) recording was performed on anesthetized mice as described. Briefly, mice were anesthetized with ketamine (100 mg/kg)/xylazine (10 mg/kg), and placed on a heat pad set to 37° C. to avoid hypothermia during the course of EMG recordings. Baseline EMG were recorded before sciatic nerve crush injury using custom-made monopolar Teflon-coated electrodes. Following sciatic nerve crush injury, EMG were recorded on a weekly basis for one month (days 7, 14, 21 and 28). For EMG recordings of proximal gastrocnemius muscle, recording electrode was inserted into the gastrocnemius muscle, and Achilles tendon electrode as a reference. For EMG recordings of distal interosseous muscle, recording electrode and reference electrode was inserted into first and fourth muscle of the same paw, respectively. Sciatic nerve was then stimulated proximally or distally, and both proximal and distal stimulations were used for CMAP of interosseous muscle. Only proximal stimulation was used for CMAP of the gastrocnemius muscle. The mean CMAP amplitude was recorded (Blackrock microsystem, USA) and calculated (Spike 2, UK).\n(§2) To examine the therapeutic potential of metaxalone, adult mice received daily intraperitoneal injection of metaxalone at 10 mg/kg immediately after injury for 21 consecutive days (i.e., metaxalone treatment) or delaying daily intraperitoneal injection of metaxalone at 10 mg/kg to 24 hours post-injury for 20 consecutive days (i.e., delayed metaxalone treatment), and all metaxalone treatments ended on day 21 post-injury. The mice were then subjected to sensory and motor function recovery tests and weekly EMG recordings for 28 days post-injury."}, "[3]": {"tested_on": "sensory function of injured hindlimb", "test": "Pinprick assay (sensory function recovery) after sciatic nerve crush", "description": "as §1\nMice were placed singly in small wire-mesh cages for 30-minutes habituation, an insect pin (Fine Science Tools) were applied to the lateral plantar surface of the ipsilateral hindlimb from toe to heel. The lateral planar surface was divided into 5 different areas, from the most distal toe (score=5) to the heel (score=1). The mouse was scored for that area if a brisk withdrawal response of hind paw was observed. The mouse was scored 0 if no withdrawal responses were observed after insect pin was applied to all 5 areas. Saphenous innervated area of the same hindlimb was tested as a positive control if there was no positive response from these five areas. Two rounds of pinprick assay were performed (with a 30-minute time interval) in each mouse to confirm the score.\nas §2"}, "[4]": {"tested_on": "pHDAC5", "test": "Western blot of pHDAC5 in sciatic nerve segments 0-6 mm distal to the crush site", "conditions": "regenerating axons of sciatic nerves 3 days post-injury", "description": "Ipsilateral L4/5 DRG neurons were harvested at various time points following sciatic nerve injury as indicated. Sciatic nerves were harvested 3 days after crush injury and segmented into 0-6 mm distal to the crush site. Each protein sample was pooled from 3 mice. DRG neurons and segmented sciatic nerves were mechanically dissociated with protein lysis buffer, and subjected to measurement of protein concentration using protein BCA assay (Pierce). Protein lysate (30 μg) was separated on 4-12% NuPAGE Tris-Glycine precast gel (Invitrogen). Protein was then transferred onto a PVDF membrane (Bio-Rad) and blocked with 5% non-fat milk (Bio-Rad) in TBS-T. The membrane was incubated with anti-FMN2 (1:500; ProteinTech), anti-phosphorylated HDAC5 (1:500, ThermoFisher), anti-HDAC5 (1:500, Novus Biologicals), anti-acetylated tubulin (1:10,000; Sigma-Aldrich), anti-NeuN (1:500; Millipore), anti-SOX10 (1:500; Abcam), anti-IBA-1 (1:1,000; Wako), anti-GFP (1:1,000; Cell Signaling), and anti-GAPDH antibodies (1:2,000; ProteinTech) as loading controls. The membrane was incubated with secondary antibody conjugated with horseradish peroxidase (1:2,000; Thermo-Fisher). Signals were detected using West Femto Maximum Sensitivity Substrate Kit (Thermo Scientific). […] Band intensities were measured using Image Lab software (Bio-Rad). […]"}, "[5]": {"tested_on": "motor function of injured hindlimb", "test": "Toe spreading reflex (motor function recovery) after sciatic nerve crush", "description": "as §1\nTo assess toe spreading reflex following PNI, mice were covered by a piece of cotton, lifted up by the tails, and uncovered their hindlimbs for assessment. Toe spreading reflex was scored as follow: 0 for no spreading, 1 for intermediate spreading with all toes separated for less than 2 seconds, and 2 for full spreading with all toes completely and widely spread, and sustained for at least two seconds. Mice were scored only when a full response was observed on the contralateral side (uninjured hindlimbs). Mice were assessed twice with 30-minute time interval in between.\nas §2"}, "[6]": {"conditions": "10 mg/kg intraperitoneally delayed to 24 hours post-injury"}, "[7]": {"conditions": "10 mg/kg intraperitoneally immediately after PNI"}}}
{"smiles": "Cc1cc(C)cc(OCC2CNC(=O)O2)c1", "note": "(centres unmarked) [metaxalone]", "values": [{"measurement": "increase of average SFI compared with SFI values at day 3 post-injury", "setting": "[1]; treated immediately", "value": 73.0, "unit": "%"}, {"measurement": "increase of average SFI compared with SFI values at day 3 post-injury, delayed treatment", "setting": "[1]; treatment delayed by 24 hours", "value": 71.4, "unit": "%"}, {"measurement": "muscle activities in proximal gastrocnemius vs vehicle controls, delayed treatment", "setting": "[2]; delayed treatment, week 1 to 3 post-injury", "value": "significant improvement"}, {"measurement": "muscle activity in interosseous muscles vs vehicle controls, delayed treatment", "setting": "[2]; delayed treatment, week 2-3 post-injury", "value": "significant increase"}, {"measurement": "muscle activity in most distal interosseous muscles vs vehicle controls", "setting": "[2]; immediate treatment, first 3 weeks post-injury", "value": "reached significance levels"}, {"measurement": "muscle activities in proximal gastrocnemius vs vehicle controls", "setting": "[2]; immediate treatment, week 1 to 3 post-injury", "value": "significant improvement"}, {"measurement": "initial response to pinprick stimuli (reaching score 1), delayed treatment", "setting": "[3]; 10 mg/kg intraperitoneally daily, delayed to 24 hours post-injury, 20 days", "value": 10, "unit": "day post-injury"}, {"measurement": "full sensory pinprick response regained earlier than vehicle controls, delayed treatment", "setting": "[3]; [6]", "value": 2, "unit": "days"}, {"measurement": "full sensory pinprick response regained earlier than vehicle controls", "setting": "[3]; [7]", "value": 4, "unit": "days"}, {"measurement": "initial response to pinprick stimuli (reaching score 1)", "setting": "[3]; 10 mg/kg intraperitoneally once a day immediately after PNI for 21 days", "value": 9, "unit": "day post-injury"}, {"measurement": "protein expression of pHDAC5", "setting": "[4]", "value": "substantial increase"}, {"measurement": "additional time vs metaxalone-treated mice to recover 50% and to fully regain toe spreading reflex, delayed treatment", "setting": "[5]; [6]", "value": 1, "unit": "days"}, {"measurement": "time to fully regain toe spreading reflex", "setting": "[5]; [7]", "value": 19, "unit": "days"}, {"measurement": "time to recover 50% of toe spreading reflex (reaching score 1)", "setting": "[5]; [7]", "value": 14, "unit": "days"}]}
